Results: PMC6151961 (Journal of Enzyme Inhibition and Medicinal Chemistry, 2018)
Where two headings read alike, the source gives them in different places. Blank lines part the entries; values can stand above or below the compound they belong to.

What was measured:
CA IX [1] = molecular target: T1, CA IX (Homo sapiens, UniProt Q16790); assay: biochemical; conditions: read-out: pKi (exp.) (converted)
CA IX [2] = molecular target: T1, CA IX; conditions: read-out: Ki, cited from earlier work
[3] = RP-LC chromatographic lipophilicity (logkw); format: physicochemical; conditions: chromatographic lipophilicity from gradient RP-LC, Luna RP-C18, water/acetonitrile with 0.1% formic acid, 30 °C
[4] = experimental value used for the QSPR model, library compounds (IDs A…, B…), equals log10 of Ki in nM
[5] = observed Ki of library compounds (IDs A…, B…), ref ChEMBL and BindingDB
[6] = library compounds with IDs A… and B…, from observed Ki (nM)
[7] = library compounds with IDs A… and B…, observed Ki, ref ChEMBL, BindingDB

Ki (CA IX [1]): 107 nM
SMILES: CC(=O)OC[C@@H]1O[C@@H](OCc2cn(-c3ccc(S(N)(=O)=O)cc3)nn2)[C@H](OC(C)=O)[C@@H](OC(C)=O)[C@H]1OC(C)=O [B0606]
Ki (CA IX [2]): 107 nM

Ki (CA IX [1]): 130 nM
SMILES: NS(=O)(=O)c1ccc(-c2cn([C@H]3O[C@H](CO)[C@@H](O[C@@H]4O[C@H](CO)[C@@H](O)[C@H](O)[C@@H]4O)[C@H](O)[C@@H]3O)nn2)cc1 [B0632]
Ki (CA IX [2]): 130 nM

Ki (CA IX [1]): 177 nM
SMILES: COc1cc(/C=C\C(=O)OCCCCO[N+](=O)[O-])ccc1OC(=O)c1cccc(S(=O)(=O)Nc2nnc(S(N)(=O)=O)s2)c1 [B0659]
Ki (CA IX [2]): 177 nM

Ki (CA IX [1]): 295 nM
SMILES: Cc1cccc(/C=N/CCc2ccc(S(N)(=O)=O)cc2)c1O [B0709]
Ki (CA IX [2]): 295 nM

Ki (CA IX [1]; [4]): 342 nM
SMILES: NS(=O)(=O)c1ccc(N[C@H]2SC[C@@H](c3ccc(Cl)cc3Cl)N2C2CCCCC2)cc1 [B0713]
Ki (CA IX [2]; [5]): 342 nM

Ki (CA IX [1]): 442 nM
SMILES: NS(=O)(=O)c1ccc(C(=O)NCc2cn([C@H]3O[C@@H](CO)[C@H](O)[C@@H](O)[C@@H]3O)nn2)cc1 [B0735]
Ki (CA IX [2]): 442 nM

Ki (CA IX [1]): 899 nM
SMILES: C[C@H]1O[C@@H](NS(N)(=O)=O)[C@@H](O)[C@H](O)[C@H]1O [B0772]
Ki (CA IX [2]): 900 nM

Ki (CA IX [1]; [6]): 2900 nM
SMILES: CC(=O)OC[C@H]1O[C@H](CC(=O)/C=C\c2ccc(O)cc2)[C@@H](OC(C)=O)[C@H](OC(C)=O)[C@@H]1OC(C)=O [B0789]
Ki (CA IX [2]; [7]): 2900 nM

Ki (CA IX [1]; [4]): 4150 nM
SMILES: COC(=O)[C@@H]1O[C@H](S(N)(=O)=O)[C@@H](OC(C)=O)[C@H](OC(C)=O)[C@@H]1OC(C)=O [B0808]
Ki (CA IX [2]; [5]): 4150 nM

Ki (CA IX [1]; [6]): 5040 nM
SMILES: Oc1cc(O)c2c(c1)O[C@@H](c1ccc(O)c(O)c1)[C@H](O)C2 [B0819]
Ki (CA IX [2]; [7]): 5030 nM

Ki (CA IX [1]; [4]): 8020 nM
SMILES: COC(=O)C(=O)[C@H]1C(=O)Nc2ccccc21 [B0865]
Ki (CA IX [2]; [5]): 8020 nM

Ki (CA IX [1]; [6]): 10100 nM
SMILES: O=C(N/N=C\c1cccc(Br)c1)Nc1nnc(S)s1 [B0891]
Ki (CA IX [2]; [7]): 10100 nM

SMILES: Cc1cc(S(=O)(=O)NC(=N)Nc2ccc(S(N)(=O)=O)cc2)c(SCc2ccccc2)cc1Cl [C94]
logkw [3]: 4.050

SMILES: Cc1cc(S(=O)(=O)NC(=N)Nc2cccc(S(N)(=O)=O)c2)c(SCc2ccccc2)cc1Cl [C95]
logkw [3]: 3.930

SMILES: Cc1cc(S(=O)(=O)NC(=N)Nc2ccccc2S(N)(=O)=O)c(SCc2ccccc2)cc1Cl [C96]
logkw [3]: 4.090

SMILES: Cc1cc(S(=O)(=O)NC(=N)NNc2ccc(S(N)(=O)=O)cc2)c(SCc2ccccc2)cc1Cl [C97]
logkw [3]: 4.090

SMILES: Cc1cc(S(=O)(=O)NC(=N)Nc2nnc(S(N)(=O)=O)s2)c(SCc2ccccc2)cc1Cl [C99]
logkw [3]: 4.070

SMILES: Cc1cc(S(=O)(=O)NC(=N)Nc2ccc(S(N)(=O)=O)cc2)c(SCc2cccc(C(F)(F)F)c2)cc1Cl [C100]
logkw [3]: 4.530

SMILES: Cc1cc(S(=O)(=O)NC(=N)Nc2cccc(S(N)(=O)=O)c2)c(SCc2cccc(C(F)(F)F)c2)cc1Cl [C101]
logkw [3]: 4.470

SMILES: Cc1cc(S(=O)(=O)NC(=N)Nc2ccccc2S(N)(=O)=O)c(SCc2cccc(C(F)(F)F)c2)cc1Cl [C102]
logkw [3]: 4.430

SMILES: Cc1cc(S(=O)(=O)NC(=N)Nc2nnc(S(N)(=O)=O)s2)c(SCc2cccc(C(F)(F)F)c2)cc1Cl [C104]
logkw [3]: 4.600

SMILES: Cc1cc(S(=O)(=O)NC(=N)Nc2ccc(S(N)(=O)=O)cc2)c(SCc2ccc(C(F)(F)F)cc2)cc1Cl [C105]
logkw [3]: 4.550

SMILES: Cc1cc(S(=O)(=O)NC(=N)Nc2cccc(S(N)(=O)=O)c2)c(SCc2ccc(C(F)(F)F)cc2)cc1Cl [C106]
logkw [3]: 4.540

SMILES: Cc1cc(S(=O)(=O)NC(=N)Nc2ccccc2S(N)(=O)=O)c(SCc2ccc(C(F)(F)F)cc2)cc1Cl [C107]
logkw [3]: 4.430

SMILES: Cc1cc(S(=O)(=O)NC(=N)NNc2ccc(S(N)(=O)=O)cc2)c(SCc2ccc(C(F)(F)F)cc2)cc1Cl [C108]
logkw [3]: 4.460

SMILES: Cc1cc(S(=O)(=O)NC(=N)NCc2ccc(S(N)(=O)=O)cc2)c(SCc2ccc(C(F)(F)F)cc2)cc1Cl [C109]
logkw [3]: 4.590

SMILES: Cc1cc(S(=O)(=O)NC(=N)Nc2ccc(S(N)(=O)=O)cc2)c(SCc2cccc3ccccc23)cc1Cl [C111]
logkw [3]: 3.900

SMILES: Cc1cc(S(=O)(=O)NC(=N)Nc2cccc(S(N)(=O)=O)c2)c(SCc2cccc3ccccc23)cc1Cl [C112]
logkw [3]: 3.940

SMILES: Cc1cc(S(=O)(=O)NC(=N)NNc2ccc(S(N)(=O)=O)cc2)c(SCc2cccc3ccccc23)cc1Cl [C113]
logkw [3]: 3.830

SMILES: Cc1cc(S(=O)(=O)NC(=N)NCc2ccc(S(N)(=O)=O)cc2)c(SCc2cccc3ccccc23)cc1Cl [C114]
logkw [3]: 3.990

SMILES: Cc1cc(S(=O)(=O)NC(=N)Nc2ccc(S(N)(=O)=O)cc2)c(SCc2cc(=O)[nH]c3ccccc23)cc1Cl [C115]
logkw [3]: 3.830

SMILES: Cc1cc(S(=O)(=O)NC(=N)Nc2cccc(S(N)(=O)=O)c2)c(SCc2cc(=O)[nH]c3ccccc23)cc1Cl [C116]
logkw [3]: 3.800
